Earlier results in patent US8747898B2, “Controlled release oral dosage form” (Andrx Pharmaceuticals, LLC, priority 1999, dated 2014).
Where a name gives a salt, the structure may show the parent alone.

How the values were obtained:
[1] = in words
[2] = in words; remark: listed apart in the source
monoamine oxidase = conditions: in words
norepinephrine uptake = conditions: in words

solubility in water [1]	permeability [2]	inhibition of monoamine oxidase (monoamine oxidase)	terminal T ½ (following single doses)	mean half-life of distributive phase (two-compartment model)	Compound	blockade of norepinephrine uptake (norepinephrine uptake)
highly soluble	high permeability				CC(NC(C)(C)C)C(=O)c1cccc(Cl)c1 (stereo not drawn) [Bupropion hydrochloride, bupropion hydrochloride]	
		does not inhibit	about 14 hours	3 to 4 h	CC(NC(C)(C)C)C(=O)c1cccc(Cl)c1 (stereo not drawn) [bupropion]	weak blocker
